This is an account of results in paper PMC8890542, “Discovery of novel paeonol-based derivatives against skin inflammation in vitro and in vivo” (Journal of Enzyme Inhibition and Medicinal Chemistry, 2022).

Where two headings read alike, the source gives them in different places. Some results are limits rather than exact numbers.

The test system of data set [1] is LPS-induced nitric oxide production in RAW264.7 cells. In words: LPS-induced NO production, Griess Reagent assay. It counts as cell-based, mouse. The note with it: for Inhibitory activity on LPS-induced NO secretion, in words: 10 µM; for IC50: LPS (0.5 μg/mL) 24 h. How it is done:
RAW264.7 cells (7 × 10^4 cells/well) were seeded into 48-well plate and used for experiments after 24 h. […] After 24 h collect cell supernatant, NO production was measured using Griess Reagent assay (Beyotime). Griess reagent were mixed at a ratio of 1:1, and reacted at room temperature for 15 min. Measurement of absorbance at […] with enzyme reader. At least three independent experiments were performed for the determination of IC50 values, which were shown as mean ± SD. All experimental data were analysed by using GraphPad Prism software, version 8.0 (GraphPad Inc.).
(In general: The Griess reaction detects nitrite, a stable product of nitric oxide.)

A further data set concerns RAW264.7 cells. Briefly: Cell viability assay (MTT), RAW264.7. Conditions: 24 h, read-out: Cytotoxicity IC50 with RAW264.7. Type of data set: cell-based, mouse. As for the experimental part:
(§1) RAW264.7 cells (1 × 10^4 cells/well) were seeded into 96-well plate and used for experiments after 24 h. Compounds (4 µM, 20 µM and 100 µM) treated cell for 24 h. Forty microliters of MTT solution (5 mg/mL, Sigma-Aldrich) was then added and incubated for an additional 4 h. After 4 h, cell culture supernatants were removed and DMSO (150 µL) was added into per well for dissolving the resulting crystals. Shaking about 1 0 ∼ 15 min and the absorbance at 492 nm was measured by a microplate reader (MQX200, Bio-Tek, Winooski, VT). At least three independent experiments were performed for the determination of IC50 values, which were shown as mean ± SD. All experimental data were analysed by using GraphPad Prism software, version 8.0 (GraphPad Inc.).

The next data set has as its system LO2 cells. In words: Cell viability assay (MTT), LO2. Type of data set: cell-based. The note with it: 24 h, read-out: Cytotoxicity IC50 with LO2.
For data set [2] the following is noted: cited from earlier work.
Data set [3] is described as follows: Cell viability assay (MTT), RAW264.7. Type of data set: cell-based, mouse. Conditions: mouse, RAW264.7 cells, read-out: Cytotoxicity IC50 with RAW264.7. How it is done: as §1
The nature of data set [4]: Cell viability assay (MTT), LO2. Type of data set: cell-based. Conditions: human, LO2 cells, read-out: Cytotoxicity IC50 with LO2.
For the next data set, the system named is LPS-induced HaCaT cells. In words: Hyperproliferation assay, LPS-stimulated HaCaT cells (MTT). It counts as cell-based, human. The note with it: pre-treated 6 h, LPS 24 h. As for the experimental part: HaCaT cells were seeded in 96-well plates and cultured at 37 °C in a humidified 5% CO2 atmosphere. When the cell confluency reached 60–70%, HaCaT cells were then starved in serum-free DMEM for 12 h before stimulated by 100 ng/mL LPS for 24 h to mimic hyperproliferative psoriatic keratinocytes. The cell viability was measured by MTT method. Results are expressed as the percentage survival of cells in the cell treated group and the untreated control group (without the tested compound and LPS).

In data set [5] the target is T1, TOPK (Homo sapiens, UniProt Q96KB5).
T1 construct: endogenous in cells
T1 sequence (Q96KB5 1-322): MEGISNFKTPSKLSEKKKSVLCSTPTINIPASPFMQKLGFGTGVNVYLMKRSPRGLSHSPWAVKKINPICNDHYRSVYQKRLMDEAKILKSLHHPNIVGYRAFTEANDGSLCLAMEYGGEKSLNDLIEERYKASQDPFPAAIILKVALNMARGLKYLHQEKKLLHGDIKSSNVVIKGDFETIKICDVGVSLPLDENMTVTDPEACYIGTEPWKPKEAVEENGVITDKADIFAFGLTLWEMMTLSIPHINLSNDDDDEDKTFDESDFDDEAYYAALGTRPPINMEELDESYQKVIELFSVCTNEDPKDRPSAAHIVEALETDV
Also noted: method as in PMID 17276892. The note with it: 100 µM; cited from earlier work.

For data set [6], the target named is T1, TOPK. Also noted: method as in earlier work. Conditions: ref 16/17; cited from earlier work.
Data set [7] deals with T1, TOPK. Also noted: method as in PMID 28404919. The note with it: time- and dose-dependent, in vitro and in vivo; cited from earlier work.
Data set [8] is described as follows: Human liver microsomes stability assay in vitro. It counts as in vitro ADME. As for the experimental part:
The livers were homogenised initially in a Tris (0.1 M)/KCl (0.1 M)/EDTA (1 mM)/butylated sodium hydroxytoluene (BHT) (0.02 mM) buffer. Add 1.5 µL control/test compound B12 working solution to 238.5 µL liver microsome working solution, gently mix. Pre-incubate at 37 °C for 5 min. Start the reaction by adding 60 µL NADPH working solution. Mix by pipetting up and down. At each time point: 0, 5, 15, 30 and 60 min, remove 30 µL of reaction mixture to 300 µL of quenching solution. Vortex vigorously for ∼1 min and centrifuge at 4000 rpm at 4 °C for 15 min. Remove 100 µL of the supernatant and mixed with 100 µL distilled water for LC-MS/MS analysis.
In general terms: Liver microsomes are vesicles of endoplasmic reticulum, rich in cytochrome P450 enzymes.

Where [9] appears, read: compounds 10 μM, 1 h, then LPS (0.5 μg/mL) 24 h.

Turning to “1–(5-acetyl-2-methoxyphenyl)-3–(2-fluorophenyl) urea [Compound B7]”, the “Inhibitory activity on LPS-induced NO secretion, in words” value in [1] was “weak to moderate inhibitory activity”. Besides, the values for the IC50 (in data set [1]; in the data set with RAW264.7 cells; in the data set with LO2 cells) were above 10 µM, above 100 µM and above 100 µM, respectively. Further, the “Inhibition rate±SD (%) against NO production” value in [1] (setting [9]) came to 15.69±4.15%.
With `COc1cc(O)c(C(C)=O)cc1[N+](=O)[O-]` [Compound 1], in [2] (reported by Huang), the Anti-inflammatory activity entry was “strong anti-inflammatory activity”.
With “1–(5-acetyl-2-methoxyphenyl)-3–(4-methoxyphenyl) urea [Compound B10]”, in data set [1], the “Inhibitory activity on LPS-induced NO secretion, in words” value is reported as “moderate inhibitory activity”. Also, the IC50 – broadly, the concentration that inhibits the measured activity by half – in data set [1] is above 10 µM; with RAW264.7 cells, above 100 µM; in the data set with LO2 cells, above 100 µM. For the same molecule, the “Inhibition rate±SD (%) against NO production” value in data set [1] (setting [9]) amounted to 5.03± 6.25%.
Take `COc1ccc(C(C)=O)c(O)c1` [Pae, paeonol]: the “Inhibitory activity on LPS-induced NO secretion, in words” value in data set [1] is recorded as “weak potencies”. Further, the IC50 in data set [1] (Mus musculus) was above 10 µM. The inhibition (in general, the relative decrease from the control value, in per cent) at 10 µM in data set [1] (Mus musculus, compounds 10 μM, 1 h, then LPS (0.5 μg/mL) 24 h, read-out: Inhibition rate±SD (%) against NO production) is 18.4 ± 1.84%. In addition, the IC50 at 24 h in data set [3] and in data set [4] was above 100 µM each time. The “Excessive proliferation of LPS-induced HaCaT cells” value with LPS-induced HaCaT cells was “did not have this effect”. Besides, at TOPK [5], the “Expression of TOPK” value is “inhibit the expression of TOPK”. Further, the “Affinity for TOPK (MST)” value on TOPK [6] is “confirmed the affinity of paeonol for TOPK”. The “Phosphorylation levels of p38, JNKs, MSK1 and histone H2AX” value at TOPK [7] is “suppressed”.
Turning to “1–(5-acetyl-2-methoxyphenyl)-3–(4-methylbenzyl) urea [Compound C3]”, the IC50 in data set [1] is above 10 µM; in the data set on RAW264.7 cells it was above 100 µM; in the data set on LO2 cells, above 100 µM. For the same molecule, the “Inhibition rate±SD (%) against NO production” value in data set [1] (setting [9]) was 30.23±4.56%.
Regarding “1–(5-acetyl-2-methoxyphenyl)-3–(4-fluorophenyl) urea [Compound B6]”, the “Inhibitory activity on LPS-induced NO secretion, in words” value in data set [1] is on record as “moderate inhibitory activity”. Also, the IC50 in data set [1] is above 10 µM; in the data set with RAW264.7 cells, above 100 µM; in the data set with LO2 cells it was above 100 µM. In addition, in data set [1] (setting [9]), the “Inhibition rate±SD (%) against NO production” value was determined as 24.15±6.18%.
The molecule `COc1ccc2c(c1)[C@]13CCCC[C@@H]1[C@H](C2)N(C)CC3` [Dextromethorphan, reference compound] displayed a CLhep in data set [8] (human) of 13.7 mL/min/kg. Further, in [8] (human liver microsomes), the T1/2 was 39.5 min and the microsomal CLint (as a rule, the rate of metabolic loss divided by the concentration) worked out at 35.1 µL/min/mg.
`COc1ccc(C(C)=O)c(Oc2ccc(NC(=O)/C=C/c3cc(OC)c(OC)c(OC)c3)cc2)c1` [Compound 3]: the Anti-inflammatory activity entry in data set [2] is recorded as “suitable anti-inflammatory activity”.
As to “1–(5-acetyl-2-methoxyphenyl)-3–(4-fluorobenzyl) urea [Compound C4]”, the results for the IC50 (in data set [1]; with RAW264.7 cells; with LO2 cells) were above 10 µM, above 100 µM and above 100 µM, respectively. In addition, the “Inhibition rate±SD (%) against NO production” value in [1] (setting [9]) stood at 45.23±3.25%.
On to `COc1cc(O)c(C(C)=O)cc1N` [Compound 2], for which the Anti-inflammatory activity entry in [2] (reported by Huang) is “strong anti-inflammatory activity”.
